From patent US9783537B2, “3-(4-ethylnylphenyl) pyridopyrimidinone compounds and process for preparation thereof useful as potential anticancer agents” (Council of Scientific & Industrial Research, priority 2013, dated 2017)
Where two headings read alike, the source gives them in different places.

Columns and labels:
[1] = tested on: HL-60(TB); test: SRB 48 h growth assay, Leukemia HL-60(TB); assay type: cell-based, human
[2] = tested on: K-562; test: SRB 48 h growth assay, Leukemia K-562; assay type: cell-based, human
[3] = tested on: RPMI-8226; test: SRB 48 h growth assay, Leukemia RPMI-8226; assay type: cell-based, human; conditions: RPMI-8226, Leukemia
[4] = tested on: HOP-62; test: SRB 48 h growth assay, Non-small Cell Lung HOP-62; assay type: cell-based, human; conditions: HOP-62, Non-small Cell Lung
[5] = tested on: HOP-92; test: SRB 48 h growth assay, Non-small Cell Lung HOP-92; assay type: cell-based, human; conditions: HOP-92, Non-small Cell Lung
[6] = tested on: NCI-H322M; test: SRB 48 h growth assay, Non-small Cell Lung NCI-H322M; assay type: cell-based, human
[7] = tested on: COLO 205; test: SRB 48 h growth assay, Colon COLO 205; assay type: cell-based, human; conditions: COLO 205, Colon
[8] = tested on: HCT-15; test: SRB 48 h growth assay, Colon HCT-15; assay type: cell-based, human; conditions: HCT-15, Colon
[9] = tested on: KM12; test: SRB 48 h growth assay, Colon KM12; assay type: cell-based, human
[10] = tested on: SW-620; test: SRB 48 h growth assay, Colon SW-620; assay type: cell-based, human; conditions: Homo sapiens, SW-620, Colon
[11] = tested on: SF-268; test: SRB 48 h growth assay, CNS SF-268; assay type: cell-based, human; conditions: SF-268, CNS
[12] = tested on: SF-539; test: SRB 48 h growth assay, CNS SF-539; assay type: cell-based, human; conditions: SF-539, CNS
[13] = tested on: SNB-75; test: SRB 48 h growth assay, CNS SNB-75; assay type: cell-based, human; conditions: SNB-75, CNS
[14] = tested on: SK-MEL-5; test: SRB 48 h growth assay, Melanoma SK-MEL-5; assay type: cell-based, human; conditions: SK-MEL-5, Melanoma
[15] = tested on: UACC-62; test: SRB 48 h growth assay, Melanoma UACC-62; assay type: cell-based, human; conditions: UACC-62, Melanoma
[16] = tested on: OVCAR-4; test: SRB 48 h growth assay, Ovarian OVCAR-4; assay type: cell-based, human; conditions: OVCAR-4, Ovarian
[17] = tested on: OVCAR-5; test: SRB 48 h growth assay, Ovarian OVCAR-5; assay type: cell-based, human; conditions: OVCAR-5, Ovarian
[18] = tested on: A498; test: SRB 48 h growth assay, Renal A498; assay type: cell-based, human
[19] = tested on: RXF393; test: SRB 48 h growth assay, Renal RXF393; assay type: cell-based, human
[20] = tested on: TK-10; test: SRB 48 h growth assay, Renal TK-10; assay type: cell-based, human; conditions: TK-10, Renal
[21] = tested on: DU-145; test: SRB 48 h growth assay, Prostate DU-145; assay type: cell-based, human; conditions: DU-145, Prostate
[22] = tested on: MCF7; test: SRB 48 h growth assay, Breast MCF7; assay type: cell-based, human
[23] = tested on: MDA-MB-231/ATCC; test: SRB 48 h growth assay, Breast MDA-MB-231/ATCC; assay type: cell-based, human
[24] = tested on: T-47D; test: SRB 48 h growth assay, Breast T-47D; assay type: cell-based, human
[25] = tested on: seven colon cancer cell line (COLO 205, HCC-2998, HCT-116, HCT-15, HT29, KM12 and SW-620); test: in vitro anticancer activity, colon panel; assay type: cell-based; conditions: Homo sapiens; seven colon cancer cell lines, exposure at least 48 h; read-out: GI50, range over panel
[26] = in vitro anticancer activity, melanoma panel; assay type: cell-based; conditions: Homo sapiens; nine melanoma cell lines, exposure at least 48 h; read-out: GI50, range over panel
[27] = Homo sapiens, read-out: Growth Inhibition GI50
[28] = Homo sapiens, read-out: Log10 GI50 (converted)
[29] = Homo sapiens, read-out: Log10 LC50 (converted)

C#Cc1ccc(-n2c(/C=C/c3ccc4ccccc4c3)nc3ncccc3c2=O)cc1 [4s, (E)-3-(4-Ethynylphenyl)-2-(2-(naphthalen-2-yl)vinyl)pyrido[2,3-d]pyrimidin-4(3H)-one]
Log10 TGI50 [1]: −5.05 | GI50 [1, 27]: 1660 nM | GI50 [1, 28]: 1660 nM | CC50 [1, 29]: 8910 nM | GI50 ([2]; Homo sapiens, K562, K-562, Leukemia, read-out: Growth Inhibition GI50): 2430 nM | GI50 ([2]; Homo sapiens, K562, K-562, Leukemia, read-out: Log10 GI50 (converted)): 2450 nM | CC50 ([2]; Homo sapiens, K562, K-562, Leukemia, read-out: Log10 LC50 (converted)): > 100000 nM | Log10 TGI50 ([2]; K-562, Leukemia): ->−4.00 | GI50 [3, 27]: 450 nM | GI50 [3, 28]: 447 nM | CC50 [3, 29]: > 100000 nM | Log10 TGI50 [3]: >−4.00 | Log10 TGI50 [4]: >−4.00 | GI50 [4, 27]: 7450 nM | GI50 [4, 28]: 7410 nM | CC50 [4, 29]: > 100000 nM | Log10 TGI50 [5]: −5.16 | GI50 [5, 27]: 1630 nM | GI50 [5, 28]: 1620 nM | CC50 [5, 29]: 6920 nM | Log10 TGI50 [6]: >−4.00 | GI50 [6, 27]: 7300 nM | GI50 [6, 28]: 7240 nM | CC50 [6, 29]: > 100000 nM | Log10 TGI50 [7]: −5.44 | GI50 [7, 27]: 2060 nM | GI50 [7, 28]: 2040 nM | CC50 [7, 29]: 3630 nM | Log10 TGI50 [8]: >−4.00 | GI50 [8, 27]: 2910 nM | GI50 [8, 28]: 2880 nM | CC50 [8, 29]: > 100000 nM | Log10 TGI50 [9]: >−4.00 | GI50 [9, 27]: 2950 nM | GI50 [9, 28]: 2950 nM | CC50 [9, 29]: > 100000 nM | GI50 ([10]; read-out: Growth Inhibition GI50): 2220 nM | GI50 ([10]; read-out: Log10 GI50 (converted)): 2240 nM | GI50 [11, 27]: 2600 nM | GI50 [11, 28]: 2630 nM | CC50 [11, 29]: > 100000 nM | Log10 TGI50 [11]: >−4.00 | GI50 [12, 27]: 2910 nM | GI50 [12, 28]: 2880 nM | CC50 [12, 29]: > 100000 nM | Log10 TGI50 [12]: >−4.00 | GI50 [13, 27]: 3690 nM | GI50 [13, 28]: 2950 nM | CC50 [13, 29]: > 100000 nM | Log10 TGI50 [13]: >−4.00 | GI50 [14, 27]: 1160 nM | GI50 [14, 28]: 1150 nM | CC50 [14, 29]: 2510 nM | Log10 TGI50 [14]: −5.60 | GI50 [15, 27]: 2490 nM | GI50 [15, 28]: 2510 nM | CC50 [15, 29]: > 100000 nM | Log10 TGI50 [15]: >−4.00 | GI50 [16, 27]: 1950 nM | GI50 [16, 28]: 1950 nM | CC50 [16, 29]: > 100000 nM | Log10 TGI50 [16]: >−4.00 | GI50 [17, 27]: 6880 nM | GI50 [17, 28]: 6920 nM | CC50 [17, 29]: > 100000 nM | Log10 TGI50 [17]: >−4.00 | Log10 TGI50 [18]: −5.23 | GI50 [18, 27]: 1690 nM | GI50 [18, 28]: 1700 nM | CC50 [18, 29]: 5890 nM | Log10 TGI50 [19]: −5.26 | GI50 ([19]; Homo sapiens, RXF 393, read-out: Growth Inhibition GI50): 1790 nM | GI50 ([19]; Homo sapiens, RXF 393, read-out: Log10 GI50 (converted)): 1780 nM | CC50 ([19]; Homo sapiens, RXF 393, read-out: Log10 LC50 (converted)): 5500 nM | GI50 [20, 27]: 4040 nM | GI50 [20, 28]: 4070 nM | CC50 [20, 29]: > 100000 nM | Log10 TGI50 [20]: >−4.00 | Log10 TGI50 [21]: >−4.00 | GI50 [21, 27]: 7450 nM | GI50 [21, 28]: 7410 nM | CC50 [21, 29]: > 100000 nM | Log10 TGI50 [22]: >−4.00 | GI50 [22, 27]: 2430 nM | GI50 [22, 28]: 2450 nM | CC50 [22, 29]: > 100000 nM | Log10 TGI50 [23]: >−4.00 | GI50 [23, 27]: 3740 nM | GI50 [23, 28]: 3720 nM | CC50 [23, 29]: > 100000 nM | Log10 TGI50 [24]: >−4.00 | GI50 ([24]; Homo sapiens, T47D, read-out: Growth Inhibition GI50): 3900 nM | GI50 ([24]; Homo sapiens, T47D, read-out: Log10 GI50 (converted)): 3890 nM | CC50 ([24]; Homo sapiens, T47D, read-out: Log10 LC50 (converted)): > 100000 nM | GI50 [25]: 300 to 360 nM | GI50 [26]: 190 to 1210 nM
